Source: patent US20240246977A1, “DEGRADATION OF BRUTON'S TYROSINE KINASE (BTK) BY CONJUGATION OF BTK INHIBITORS WITH E3 LIGASE LIGAND AND METHOD OF USE” (BeiGene Switzerland GmbH, priority 2021, published 2024)
pIC50: −log10 of the molar value. Where two headings read alike, the source gives them in different places.

Key:
BTK = BTK (Homo sapiens, UniProt Q06187); experiment: BTK cell degradation in TMD-8 cells, HTRF assay; format: cell-based; set-up: endogenous in cells; host or cells: TMD-8 cells; settings: 6 h treatment, IC50 (DC50) of BTK degradation
Outline: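 BTK levels read by HTRF in lysates of TMD-8 cells exposed to compounds for 6 h, eight concentrations at 6-fold steps in 0.2% DMSO. Percent degradation versus DMSO and low controls was fitted with a four-parameter equation to give DC50; Dmax is maximal degradation.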

HEK-293 cells = experiment: HEK-293 cytotoxicity detection (CellTiter-Glo); format: cell-based; settings: 72 h incubation, CellTiter-Glo luminescence, read-out: HEK293
Outline: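 HEK-293 cells exposed 72 h to 8 compounds doses (4-fold dilutions, top stock 5 mM at 500×) in 0.2% DMSO. Viability by CellTiter-Glo luminescence; inhibition normalised to DMSO high control and low control, IC50 from four-parameter curve fit.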

Sequence of BTK (Q06187 whole entry): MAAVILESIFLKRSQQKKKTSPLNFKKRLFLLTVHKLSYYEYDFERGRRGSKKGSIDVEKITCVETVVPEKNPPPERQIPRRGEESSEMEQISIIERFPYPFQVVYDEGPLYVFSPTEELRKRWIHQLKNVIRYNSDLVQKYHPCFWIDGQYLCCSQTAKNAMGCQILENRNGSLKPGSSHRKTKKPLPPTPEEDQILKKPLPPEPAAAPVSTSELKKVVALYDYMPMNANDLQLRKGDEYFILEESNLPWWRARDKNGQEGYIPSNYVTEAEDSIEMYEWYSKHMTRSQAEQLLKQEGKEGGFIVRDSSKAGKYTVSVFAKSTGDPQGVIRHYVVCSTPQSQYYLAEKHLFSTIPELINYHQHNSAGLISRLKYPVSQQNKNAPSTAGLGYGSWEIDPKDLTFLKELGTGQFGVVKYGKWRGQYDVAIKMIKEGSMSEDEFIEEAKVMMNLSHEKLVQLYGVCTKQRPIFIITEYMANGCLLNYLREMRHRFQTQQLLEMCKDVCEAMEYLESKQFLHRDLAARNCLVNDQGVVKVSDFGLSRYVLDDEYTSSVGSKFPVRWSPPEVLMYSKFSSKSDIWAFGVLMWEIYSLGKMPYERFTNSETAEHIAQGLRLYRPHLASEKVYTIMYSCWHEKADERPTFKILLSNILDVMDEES

Row | SMILES | DC50 (BTK) | pIC50 (HEK-293 cells; Homo sapiens, 72 h) | pIC50 (HEK-293 cells)
1 | COc1ccc2ccccc2c1C(=O)NCc1ccc(-c2nn3c(c2C(N)=O)Nc2ccc(N4CCN(CC5CCN(c6ccc(N7CCC(=O)NC7=O)cc6)CC5)CC4)cc2CC3)cc1 [Example C4, 7-(4-((1-(4-(2,4-dioxotetrahydropyrimidin-1(2H)-yl)phenyl)piperidin-4-yl)methyl)piperazin-1-yl)-2-(4-((2-methoxy-1-naphthamido)methyl)phenyl)-9,10-dihydro-4H-benzo[d]pyrazolo[1,5-a][1,3]diazepine-3-carboxamide] | 0.282 nM | < 5.00 | –
2 | NC(=O)c1c(-c2ccc(C3(Nc4cc(C(F)(F)F)ccn4)CC3)cc2)nn2c1Nc1ccc(N3CCN(CC4CCN(c5ccc(N6CCC(=O)NC6=O)cc5)CC4)CC3)cc1CC2 [Example C16, 7-(4-((1-(4-(2,4-dioxotetrahydropyrimidin-1(2H)-yl)phenyl)piperidin-4-yl)methyl)piperazin-1-yl)-2-(4-(1-((4-(trifluoromethyl)pyridin-2-yl)amino)cyclopropyl)phenyl)-9,10-dihydro-4H-benzo[d]pyrazolo[1,5-a][1,3]diazepine-3-carboxamide] | 60.1 nM | < 5.00 | –
3 | Cc1cccc(NC(=O)c2ccc(-c3nn4c(c3C(N)=O)Nc3ccc(N5CCN(CC6CCN(c7ccc(N8CCC(=O)NC8=O)cc7)CC6)CC5)cc3CC4)cc2C)n1 [Example B21, 7-(4-((1-(4-(2,4-dioxotetrahydropyrimidin-1(2H)-yl)phenyl)piperidin-4-yl)methyl)piperazin-1-yl)-2-(3-methyl-4-((6-methylpyridin-2-yl)carbamoyl)phenyl)-9,10-dihydro-4H-benzo[d]pyrazolo[1,5-a][1,3]diazepine-3-carboxamide] | 0.602 nM | < 5.00 | –
4 | Cc1c(C(=O)Nc2cn(C)cn2)ccc(-c2nn3c(c2C(N)=O)Nc2ccc(N4CCN(C(=O)C5CCN(c6ccc(N7CCC(=O)NC7=O)cc6)CC5)CC4)cc2CC3)c1F [Example B91, 7-(4-(1-(4-(2,4-dioxotetrahydropyrimidin-1(2H)-yl)phenyl)piperidine-4-carbonyl)piperazin-1-yl)-2-(2-fluoro-3-methyl-4-((1-methyl-1H-imidazol-4-yl)carbamoyl)phenyl)-9,10-dihydro-4H-benzo[d]pyrazolo[1,5-a][1,3]diazepine-3-arboxamide] | 1.36 nM | < 5.00 | –
5 | Cc1nc(NC(=O)c2ccc(-c3nn4c(c3C(N)=O)Nc3ccc(N5CCN(CC6CCN(c7ccc(N8CCC(=O)NC8=O)cc7)CC6)CC5)nc3CC4)c(F)c2C)ccc1Cl [Example B52, 2-(4-((5-chloro-6-methylpyridin-2-yl)carbamoyl)-2-fluoro-3-methylphenyl)-7-(4-((1-(4-(2,4-dioxotetrahydropyrimidin-1(2H)-yl)phenyl)piperidin-4-yl)methyl)piperazin-1-yl)-9,10-dihydro-4H-pyrazolo[1,5-a]pyrido[3,2-d][1,3]diazepine-3-carboxamide] | 4.06 nM | < 5.00 | –
6 | Cc1c(C(=O)Nc2cscn2)ccc(-c2nn3c(c2C(N)=O)Nc2ccc(N4CCN(CC5CCN(c6ccc(N7CCC(=O)NC7=O)cc6)CC5)CC4)cc2CC3)c1F [Example B94, 7-(4-((1-(4-(2,4-dioxotetrahydropyrimidin-1(2H)-yl)phenyl)piperidin-4-yl)methyl)piperazin-1-yl)-2-(2-fluoro-3-methyl-4-(thiazol-4-ylcarbamoyl)phenyl)-9,10-dihydro-4H-benzo[d]pyrazolo[1,5-a][1,3]diazepine-3-carboxamide] | 0.378 nM | < 5.00 | –
7 | COc1cccc(C)c1C(=O)NCc1ccc(-c2nn3c(c2C(N)=O)Nc2ccc(N4CCN(CC5CCN(c6ccc(N7CCC(=O)NC7=O)cc6)CC5)CC4)cc2CC3)cc1C [Example C38, 7-(4-((1-(4-(2,4-dioxotetrahydropyrimidin-1(2H)-yl)phenyl)piperidin-4-yl)methyl)piperazin-1-yl)-2-(4-((2-methoxy-6-methylbenzamido)methyl)-3-methylphenyl)-9,10-dihydro-4H-benzo[d]pyrazolo[1,5-a][1,3]diazepine-3-carboxamide] | 7.96 nM | < 5.00 | –
8 | Cc1cccc(NC(=O)c2ncc(-c3nn4c(c3C(N)=O)Nc3ccc(N5CCN(CCc6cc(F)c(C7CCC(=O)NC7=O)c(F)c6)CC5)cc3CC4)cc2C)n1 (centres unmarked) [Example B33, 7-(4-(4-(2,6-dioxopiperidin-3-yl)-3,5-difluorophenethyl)piperazin-1-yl)-2-(5-methyl-6-((6-methylpyridin-2-yl)carbamoyl)pyridin-3-yl)-9,10-dihydro-4H-benzo[d]pyrazolo[1,5-a][1,3]diazepine-3-carboxamide] | 17.6 nM | 6.40 | –
9 | Cc1cccc(NC(=O)c2ncc(-c3nn4c(c3C(N)=O)Nc3ccc(N5CCN(C6CC(c7ccc([C@H]8CCC(=O)NC8=O)cc7)C6)CC5)cc3CC4)cc2C)n1 (stereo partly drawn) [Example B34, (R)-7-(4-(3-(4-(2,6-dioxopiperidin-3-yl)phenyl)cyclobutyl)piperazin-1-yl)-2-(5-methyl-6-((6-methylpyridin-2-yl)carbamoyl)pyridin-3-yl)-9,10-dihydro-4H-benzo[d]pyrazolo[1,5-a][1,3]diazepine-3-carboxamide] | 57.8 nM | 6.78 | –
10 | Cc1c(C(=O)Nc2nc(C(F)(F)F)n[nH]2)ccc(-c2nn3c(c2C(N)=O)Nc2ccc(N4CCN(CC5CCN(c6ccc(N7CCC(=O)NC7=O)cc6)CC5)CC4)cc2CC3)c1F [Example B85, 7-(4-((1-(4-(2,4-dioxotetrahydropyrimidin-1(2H)-yl)phenyl)piperidin-4-yl)methyl)piperazin-1-yl)-2-(2-fluoro-3-methyl-4-((3-(trifluoromethyl)-1H-1,2,4-triazol-5-yl)carbamoyl)phenyl)-9,10-dihydro-4H-benzo[d]pyrazolo[1,5-a][1,3]diazepine-3-carboxamide] | 1.87 nM | < 5.00 | –
11 | Cc1cccc(NC(=O)c2ncc(-c3nn4c(c3C(N)=O)Nc3ccc(N5CCN(C6CC(c7ccc(C8CCC(=O)NC8=O)cc7)C6)CC5)cc3CC4)cc2C)n1 (stereo in doubt) [Example B35, (S)-7-(4-(3-(4-(2,6-dioxopiperidin-3-yl)phenyl)cyclobutyl)piperazin-1-yl)-2-(5-methyl-6-((6-methylpyridin-2-yl)carbamoyl)pyridin-3-yl)-9,10-dihydro-4H-benzo[d]pyrazolo[1,5-a][1,3]diazepine-3-carboxamide] | 10.6 nM | – | 7.01
12 | Cc1cccc(NC(=O)c2ccc(-c3nn4c(c3C(N)=O)Nc3ccc(N5CCN(C6CC(c7ccc([C@@H]8CCC(=O)NC8=O)cc7)C6)CC5)cc3CC4)c(F)c2C)n1 (stereo partly drawn) [Example B68, (S)-7-(4-(3-(4-(2,6-dioxopiperidin-3-yl)phenyl)cyclobutyl)piperazin-1-yl)-2-(2-fluoro-3-methyl-4-((6-methylpyridin-2-yl)carbamoyl)phenyl)-9,10-dihydro-4H-benzo[d]pyrazolo[1,5-a][1,3]diazepine-3-carboxamide] | 2.56 nM | 6.98 | –
13 | COc1ccc(C)cc1C(=O)NCc1ccc(-c2nn3c(c2C(N)=O)Nc2ccc(N4CCN(CC5CCN(c6ccc(N7CCC(=O)NC7=O)cc6)CC5)CC4)cc2CC3)cc1 [Example C2, 7-(4-((1-(4-(2,4-dioxotetrahydropyrimidin-1(2H)-yl)phenyl)piperidin-4-yl)methyl)piperazin-1-yl)-2-(4-((2-methoxy-5-methylbenzamido)methyl)phenyl)-9,10-dihydro-4H-benzo[d]pyrazolo[1,5-a][1,3]diazepine-3-carboxamide] | 0.52 nM | < 5.00 | –
